Measurements published in ChEMBL document CHEMBL6083251, “"Pseudosubstrate Envelope"/Free Energy Perturbation-Guided Design and Mechanistic Investigations of Benzothiazole HIV Capsid Modulators with High Ligand Efficiency” (J Med Chem, 2024).
The source made the active and inactive calls. The calls are words filed in the database; no cut-off is given here.

Columns and labels:
[1] = system: Human immunodeficiency virus 2; assay: Anti-HIV activity against HIV-2 ROD infected in human MT-4 cells assessed as protection against virus-induced cytopathic effect incubated for 5 days by spectrophotometric based MTT assay; type: functional, organism-based; details: Human immunodeficiency virus 2, ROD, MT4, 120 h
[2] = Selectivity ratio of EC50 for wild type HIV-1 IIIB infected in human MT4 cells to EC50 for HIV-2 ROD infected in human MT-4 cells assessed as protection against virus-induced cytopathic effect incubated for 5 days by spectrophotometric based MTT assay; type: functional; details: time 5 day
[3] = Selectivity index, ratio of CC50 for human MT4 cells to EC50 for HIV-2 ROD infected in human MT-4 cells; type: toxicity, cell-based; details: read-out: Selectivity Index
[4] = Selectivity index, ratio of CC50 for human MT4 cells to EC50 for wild type HIV-1 IIIB infected in human MT4 cells; type: toxicity, cell-based; details: read-out: Selectivity Index
MT4 = assay: Cytotoxicity against human MT4 cells assessed as reduction in cell viability incubated for 5 days by spectrophotometric based MTT assay; type: functional; details: MT4, 120 h, time 5 day
[5] = system: Human immunodeficiency virus 1; assay: Anti-HIV activity against wild type HIV-1 IIIB infected in human MT4 cells assessed as protection against virus-induced cytopathic effect incubated for 5 days by spectrophotometric based MTT assay; type: functional, organism-based; details: Human immunodeficiency virus 1, IIIB, MT4, 120 h
[6] = biological target: Human immunodeficiency virus type 1 reverse transcriptase (Human immunodeficiency virus 1) (UniProt Q72547); details: dose 10.0 nM, time 1.0 hrs
[7] = biological target: Structural capsid protein (Human immunodeficiency virus 1) (UniProt Q76129); assay: Binding affinity to monomeric HIV-1 NL4.3 capsid protein assessed as dissociation rate (Koff) by SPR assay; details: filed as modulator
[8] = Metabolic stability in human liver microsomes assessed as intrinsic clearance at 1 uM incubated for 60 mins by LC-MS/MS analysis; type: ADME, Microsome; details: read-out: CLH
[9] = biological target: Structural capsid protein (Human immunodeficiency virus 1) (UniProt Q76129); assay: Binding affinity to hexameric HIV-1 NL4.3 capsid protein assessed as dissociation rate (Koff) by SPR assay; details: filed as modulator
[10] = biological target: Structural capsid protein (Human immunodeficiency virus 1) (UniProt Q76129); assay: Binding affinity to monomeric HIV-1 NL4.3 capsid protein assessed as residence time by SPR assay; details: filed as modulator
[11] = biological target: Structural capsid protein (Human immunodeficiency virus 1) (UniProt Q76129); assay: Binding affinity to hexameric HIV-1 NL4.3 capsid protein assessed as residence time by SPR assay; details: filed as modulator
[12] = biological target: T1, Structural capsid protein (Human immunodeficiency virus 1, UniProt Q76129); assay: Binding affinity to monomeric HIV-1 NL4.3 capsid protein assessed as dissociation constant by SPR assay
[13] = biological target: Structural capsid protein (Human immunodeficiency virus 1) (UniProt Q76129); assay: Binding affinity to HIV-1 hexameric capsid protein assessed as reduction in CPSF6 binding to capsid protein by competition assay based SPR analysis; details: filed as modulator
[14] = system: Human immunodeficiency virus 1; assay: Antiviral activity against pseudotyped HIV-1 expressing luciferase-reporter transfected in HEK293T cells assessed as viral inhibition at late stage incubated for 48 hrs by Single-round infection assay; type: functional, organism-based
[15] = system: Human immunodeficiency virus 1; assay: Antiviral activity against pseudotyped HIV-1 expressing luciferase-reporter transfected in HEK293T cells assessed as viral inhibition at early stage incubated for 48 hrs by Single-round infection assay; type: functional, organism-based
[16] = biological target: Structural capsid protein (Human immunodeficiency virus 1) (UniProt Q76129); assay: Binding affinity to HIV-1 hexameric capsid protein assessed as reduction in NUP153 binding to capsid protein by competition assay based SPR analysis; details: filed as modulator
[17] = biological target: T1, Structural capsid protein; assay: Binding affinity to hexameric HIV-1 NL4.3 capsid protein assessed as dissociation constant by SPR assay
[18] = biological target: Human immunodeficiency virus type 1 reverse transcriptase (Human immunodeficiency virus 1) (UniProt Q72547); assay: Inhibition of HIV1 reverse transcriptase at 20 nM incubated for 1 hr by ELISA analysis
[19] = system: Human immunodeficiency virus 1; assay: Antiviral activity against pseudotyped HIV-1 expressing luciferase-reporter transfected in HEK293T cells assessed as increase in p24 level in progeny virions by ELISA analysis; type: functional, organism-based
[20] = biological target: Human immunodeficiency virus type 1 reverse transcriptase (Human immunodeficiency virus 1) (UniProt Q72547); assay: Inhibition of HIV1 reverse transcriptase at 13 nM incubated for 1 hr by ELISA analysis

T1 sequence (Q76129 whole entry): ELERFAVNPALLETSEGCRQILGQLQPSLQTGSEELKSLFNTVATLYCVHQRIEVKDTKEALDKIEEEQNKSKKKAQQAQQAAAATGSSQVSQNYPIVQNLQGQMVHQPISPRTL
Structural capsid protein (Human immunodeficiency virus 1), sequence (Q76129 as listed by the source): as the sequence (Q76129 whole entry) above

Compound | EC50 [1] | Ratio EC50 [2] | selectivity ratio [3] | selectivity ratio [4] | CC50 (MT4) | EC50 [5] | other results
COc1ccc2[nH]cc(CC(=O)N[C@@H](Cc3cc(F)cc(F)c3)C(=O)N(C)c3ccc4scnc4c3)c2c1 | 159 nM | 0.14 | 460 | 3260 | 73200 nM | 22.4 nM | –
CN(C(=O)[C@H](Cc1cc(F)cc(F)c1)NC(=O)Cc1c[nH]c2ccc(F)cc12)c1ccc2scnc2c1 | 144 nM | 0.07 | 177 | 2510 | 25500 nM | 10.1 nM | –
Cc1cc(/C=C/C#N)cc(C)c1Nc1ccnc(Nc2ccc(C#N)cc2)n1 | – | – | – | – | – | – | inhibition [6]: Active
CN(C(=O)[C@H](Cc1cc(F)cc(F)c1)NC(=O)Cc1c[nH]c2ccccc12)c1ccc2scnc2c1 | 218 nM | 0.18 | 153 | 842 | 33400 nM | 39.6 nM | –
COc1ccc2c(CC(=O)N[C@@H](Cc3cc(F)cc(F)c3)C(=O)N(C)c3ccc4scnc4c3)c[nH]c2c1 | 224 nM | 0.57 | 170 | 300 | 38200 nM | 127 nM | –
Cc1ccc2[nH]cc(CC(=O)N[C@@H](Cc3cc(F)cc(F)c3)C(=O)N(C)c3ccc4scnc4c3)c2c1 | 193 nM | 0.22 | 137 | 621 | 26400 nM | 42.4 nM | –
Cc1[nH]c2ccccc2c1CC(=O)N[C@@H](Cc1cc(F)cc(F)c1)C(=O)N(C)c1ccc2scnc2c1 | 887 nM | 0.3 | 32.8 | 108 | 29100 nM | 270 nM | –
CN(C(=O)[C@H](Cc1cc(F)cc(F)c1)NC(=O)Cc1c[nH]c2cc(Cl)ccc12)c1ccc2scnc2c1 | 126 nM | 0.29 | 197 | 669 | 24800 nM | 37.1 nM | –
COc1ccc(N(C)C(=O)[C@H](Cc2ccccc2)NC(=O)CN2CCN(S(=O)(=O)c3ccc(N)cc3)CC2=O)cc1 | 13.6 nM | – | – | – | 114000 nM | – | K [7]: 2.34 10^-1/s; CLint scaled at 1 µM [8]: 344 mL/min/kg; K [9]: 2.01 10^-2/s; TIME [10]: 0.00118 h; TIME [11]: 0.0138 h
CN(C(=O)[C@H](Cc1cc(F)cc(F)c1)NC(=O)Cc1c[nH]c2cc(F)c(F)cc12)c1ccc2scnc2c1 | 204 nM | 0.05 | 116 | 2410 | 23600 nM | 9.81 nM | Kd [12]: 267 nM; Activity [13]: Active; Activity [14]: Active; Activity [15]: Active; Activity [16]: Active; Kd [17]: 305 nM; inhibition [18]: inactive; Activity [19]: Active
Cc1cc(C)n(CC(=O)N[C@@H](Cc2cc(F)cc(F)c2)C(=O)N(C)c2ccc3scnc3c2)n1 | 3060 nM | 0.09 | > 84.5 | > 962 | > 259000 nM | 269 nM | –
CN(C(=O)[C@H](Cc1cc(F)cc(F)c1)NC(=O)Cc1c[nH]c2cccc(Cl)c12)c1ccc2scnc2c1 | 1930 nM | 0.1 | 12.7 | 132 | 24400 nM | 186 nM | –
CN(C(=O)[C@H](Cc1cc(F)cc(F)c1)NC(=O)Cc1c[nH]c2ccc([N+](=O)[O-])cc12)c1ccc2scnc2c1 | 129 nM | 0.05 | 220 | 4460 | 28400 nM | 6.37 nM | Kd [12]: 153 nM; Activity [13]: Active; inhibition [20]: inactive; Activity [14]: Active; Activity [15]: Active; Activity [16]: Active; Kd [17]: 87.9 nM; Activity [19]: Active
